# In patent US6780608B1, “Human type 3 ryanodine receptor protein and DNA molecules coding therefor” (priority 1997, dated 2004):
# “Also recorded” adds a separate entry of the source.
# Columns and labels:
# [1] = test system: chimeric RyR from rabbit RyR2 and human RyR3; test: Intracellular calcium signal (fluo-3) in dyspedic myotubes injected with chimeric human RyR3 cDNA; format: cell-based; details: 1 mM caffeine, local injection; dyspedic myotubes expressing chimeric human RyR3; n=5 out of 20 reacted
# Text: (§1) The cDNA insert was constructed from the following fragments: EcoRI(vector)/MroI(1232) obtained from IhBRR22, MroI(1232)/HindIII(2956) from IhBRR61, HindIII(2956)/BcII(3506) from IhBRR501, BcII(3506)/PmaCI(4750) from IhBRR51, PmaCI(4750)/PstI(7339) from IhBRR53, PstI(7339)/ClaI(9559) from IhBRR411, ClaI(9559)/SpeI(10569) from IhBRR79, SpeI(10569)/ApaI(11451) from IhBRR407, ApaI(11451)/EcoRI(11815) from IhBRR502, EcoRI(11815)/EcoRI(14861) from IhBRR91. The expression plasmid of the chimeric ryanodine receptor cDNA from human RyR3 and rabbit RyR2 was constructed as follows: the SalI(vector)/PmaCI(5038) fragment was rabbit RyR2 cDNA (Nakai, J. et al. FEBS Lett. 271 (1990), 169-177) and the PmaCI(4750)/NotI(vector) fragment from human RyR3-cDNA was ligated into the SalI/NotI cutting site of pCI-neo. Cultures of myotubes from RyR1-deficient (dyspedic) mice and cDNA injection are already known (Nakai, J. et al., Nature 380, (1996), 72-75). Changes in fluorescence (dimensionless random units) were measured after loading the myotubes with fluo-3 AM (Garcia, J., and Beam, K. G., J. Gen. Physiol. 103, (1994), 107-123). […] The washing solution used was normal Nager-Ringer solution of the following composition (mM): 145 NaCl, 5 KCl, 2 CaCl2, 1 MgCl2, 10 HEPES, pH 7.4 adjusted using NaOH. The temperature was 20-22° C.
# [2] = test system: non-injected dyspedic myotubes; test: Intracellular calcium signal (fluo-3) in non-injected dyspedic myotubes; format: cell-based, mice; details: 1 mM caffeine, n=0 out of 20 reacted
# Text: as §1
# U373 cells = test: Intracellular calcium (aequorin luminescence) in U373 cells; format: cell-based, human; details: for increase in intracellular calcium after addition of ryanodine: ryanodine 100 mM as printed, U373 cells, n=2 out of 4 react, 2 out of 4 do not react
# Protocol: (§2) The luminescence was determined using the method recently published (Maeda, A. et al., Anal. Biochem. 242, (1996), 58-66). To do this the cells (1×10^5 cells/vessel) were transferred into the solution of the calcium assay having the following composition (mM): 140 NaCl, 5 KCl, 1.5 MgCl2, 2.5 CaCl2, 5 glucose and 10 HEPES, pH 7.4 adjusted using NaOH, including […] of coelenterazine, the intermediate substrate of aequorine, and incubated for 6 hours at 37° C. The system for measuring luminescence consisted of the spectrofluorometer CAF-110 (Jasco) (Hakamata Y. et al., FEBS Lett. 352, (1994), 206-210), which is connected to a luminescence unit PL-03 (Jasco).
# (§3) The total amount of aequorine activity was measured, after permeabilisation of the cells with digitonin, in a final concentration of […].
# H4 cells = test: Intracellular calcium (aequorin luminescence) in H4 cells; format: cell-based, human; details: H4 neuroglyoma cells
# Protocol: as §2, §3
Compound,intracellular calcium signal as a reaction to caffeine [1],intracellular calcium signal as a reaction to caffeine [2],"increase in intracellular calcium after addition of caffeine (U373 cells; caffeine final concentration 10 mM, U373 astrocytoma cells, n=7, listed as Caffeine)",increase in calcium after addition of caffeine (H4 cells; caffeine final concentration 10 mM),increase in intracellular calcium after addition of ryanodine (U373 cells),increase in intracellular calcium after addition of ryanodine (U373 cells; listed as Ryanodine),increase in calcium after addition of ryanodine (H4 cells; ryanodine 100 mM [sic])
Cn1c(=O)c2c(ncn2C)n(C)c1=O [caffeine],reacts,do not react; also recorded: no reaction whatsoever,no effect,not to caffeine,,,
ryanodine,,,,,reacted,triggers temporary calcium fluctuations,reacted
